The values that follow come from patent US10787457B2 (priority 2015, dated 2020).

The conditions of this series: mouse hepatic microsome 0.25 mg/mL; 1 μM; 37° C. 30 minutes; NADPH-generating system.

Molecules are shown by their SMILES.

Take `Cc1ccc(-c2nn(C(C)(C)C)c3ncnc(N)c23)cc1` [Compound 4 of Comparative Examples, 1-(tert-butyl)-3-(p-tolyl)pyrazolo[3,4-d]pyrimidin-4-amine]: the “percentage of the remaining tested compounds (remaining %)” value was found to be 0%.
